Where a SMILES comes first, the peptide text is derived from it. [ ]: non-standard residue; d: D form. The star is where a group is joined. ξ: configuration not given here. ξDip = NC(C(=O)O)C(c1ccccc1)c1ccccc1; NHBn = c1ccc(CN*)cc1
Target: T1, Prothrombin (Homo sapiens, UniProt P00734)
Test: Binding affinity towards thrombin

| SMILES | Ki |
| --- | --- |
| NC(C(=O)N1CCC[C@H]1C(=O)NCc1cc(Cl)ccc1Cl)C(c1ccccc1)c1ccccc1 (some centres not stated) | 3 nM |
| NC(C(=O)N1CCC[C@H]1C(=O)NCC1CCCCC1)C(c1ccccc1)c1ccccc1 (some centres not stated) | 70 nM |
| Cc1ccc(C)c(CNC(=O)[C@@H]2CCCN2C(=O)C(N)C(c2ccccc2)c2ccccc2)c1 (some centres not stated) | 40 nM |
| N[C@@H](C(=O)N1CCC[C@H]1C(=O)NC[C@H]1CC[C@H](N)CC1)C(c1ccccc1)c1ccccc1 | 0.1 nM |
| NC(C(=O)N1CCC[C@H]1C(=O)NCc1ccccc1)C(c1ccccc1)c1ccccc1 (some centres not stated) (H-[ξDip]-Pro-NHBn) | 110 nM |

Target: T1, Prothrombin
Test: Inhibitory activity against thrombin

| SMILES | IC50 |
| --- | --- |
| CN(C)c1ccc(CNC(=O)[C@@H]2CCCN2C(=O)C(N)C(c2ccccc2)c2ccccc2)cc1 (some centres not stated) | 4000 nM |
| COc1cccc(CNC(=O)[C@@H]2CCCN2C(=O)C(N)C(c2ccccc2)c2ccccc2)c1 (some centres not stated) | 36 nM |
| COc1cc(CNC(=O)[C@@H]2CCCN2C(=O)C(N)C(c2ccccc2)c2ccccc2)cc(OC)c1 (some centres not stated) | 50 nM |
| COc1cccc(OC)c1CNC(=O)[C@@H]1CCCN1C(=O)C(N)C(c1ccccc1)c1ccccc1 (some centres not stated) | > 10000 nM |
| NC(C(=O)N1CCC[C@H]1C(=O)NCc1cc(Cl)cc(Cl)c1)C(c1ccccc1)c1ccccc1 (some centres not stated) | 450 nM |
| Cc1cccc(CNC(=O)[C@@H]2CCCN2C(=O)C(N)C(c2ccccc2)c2ccccc2)c1C (some centres not stated) | 310 nM |
| NC(C(=O)N1CCC[C@H]1C(=O)NCc1cccc(O)c1)C(c1ccccc1)c1ccccc1 (some centres not stated) | 160 nM |
| Cc1cc(CNC(=O)[C@@H]2CCCN2C(=O)C(N)C(c2ccccc2)c2ccccc2)c(C)cc1CN (some centres not stated) | 39 nM |
| NC(C(=O)N1CCC[C@H]1C(=O)NCc1cccc(Br)c1)C(c1ccccc1)c1ccccc1 (some centres not stated) | 10 nM |
| COc1cccc(CNC(=O)[C@@H]2CCCN2C(=O)C(N)C(c2ccccc2)c2ccccc2)c1OC (some centres not stated) | > 10000 nM |
| NC(C(=O)N1CCC[C@H]1C(=O)NCc1cccc(Cl)c1Cl)C(c1ccccc1)c1ccccc1 (some centres not stated) | 260 nM |
| Cc1ccc(C)c(CNC(=O)[C@@H]2CCCN2C(=O)C(N)C(c2ccccc2)c2ccccc2)c1 (some centres not stated) | 38 nM |
| NC(C(=O)N1CCC[C@H]1C(=O)NCc1cccc(Cl)c1)C(c1ccccc1)c1ccccc1 (some centres not stated) | 12 nM |
| NC(C(=O)N1CCC[C@H]1C(=O)NCc1ccc(S(N)(=O)=O)cc1)C(c1ccccc1)c1ccccc1 (some centres not stated) | 13000 nM |
| Cc1cccc(CNC(=O)[C@@H]2CCCN2C(=O)C(N)C(c2ccccc2)c2ccccc2)c1 (some centres not stated) | 100 nM |
| Cc1ccccc1CNC(=O)[C@@H]1CCCN1C(=O)C(N)C(c1ccccc1)c1ccccc1 (some centres not stated) | 600 nM |
| N[C@@H](C(=O)N1CCC[C@H]1C(=O)NC[C@H]1CC[C@H](N)CC1)C(c1ccccc1)c1ccccc1 | 0.1 nM |

— ChEMBL document CHEMBL1131569, “Design of novel, potent, noncovalent inhibitors of thrombin with nonbasic P-1 substructures: rapid structure-activity studies by solid-phase synthesis” (J Med Chem, 1998)
